Experimental data taken from patent US20220281831A1, “FUSED-GLUTARIMIDE CRBN LIGANDS AND USES THEREOF” (Kymera Therapeutics, Inc., priority 2019, published 2022).

Tests used:
[1] = biological target: His-tagged CRBN-DDB1 complex (Homo sapiens, UniProt Q96SW2); assay: Time-Resolved Fluorescence Resonance Energy Transfer (TR-FRET / HTRF) CRBN binding assay, displacement of Cy5-labeled thalidomide; settings: His-CRBN-DDB1, Cy5-thalidomide 8 nM, 1 hour room temperature
CRBN-DDB1 = CRBN-DDB1 (Homo sapiens, UniProt Q96SW2); assay: Fluorescence Polarization (FP) CRBN binding assay, probe TM-493 (FAM-BB-100); settings: CRBN-DDB1, TM-493 probe, 60 min room temperature
Method: Fluorescence Polarization (FP) Assay
Materials: PerkinElmer EnVision 2104 Multilabel Reader, PerkinElmer FITC FP dual emission Label 2100-8060, Corning 384-well microplate #4514, V-CMR-TM-493 (FAM-BB-100), and CRBN-DDB1-180605.
Methods: Dilution buffer (50 mM HEPES-Na pH 7.5, 100 mM NaCl, 2 mM DTT, and 0.005% Tween-20) and compound DMSO dilutions were prepared. 4× compound working solutions were made with 8% DMSO (4×) and 13.8 μL/well of dilution buffer was placed in a new 96-well plate and 1.2 μL/well of above compound DMSO dilutions were added to the wells. 40 nM (4×) TM-493 in dilution buffer was prepared from a 10 μM DMSO stock and 15 μL per well of the TM-493 working solution was transferred into the compound working solution. 160 nM (2×) CRBN-DDB1 working solution was prepared with Dilution Buffer and 10 μL/well were added into a 384-well plate. 10 μL per well of the TM-493/compound mixture were transferred into the 384-well plate. The “positive control” was sample without protein and compound in 2% DMSO. After incubation at room temperature for 60 min, data was collected and read on data on an EnVision with the following setting: Excitation Light (%): 100; Measurement Height: 9.4; G-Factor: 1; Detector Gain 1: 200; Detector Gain 2: 200; Flash Number: 100. Data was processed using GraphPad Prism 7.0
The compound numbers correspond to the compound numbers in Table 1.

Sequence of CRBN-DDB1 (Q96SW2 whole entry): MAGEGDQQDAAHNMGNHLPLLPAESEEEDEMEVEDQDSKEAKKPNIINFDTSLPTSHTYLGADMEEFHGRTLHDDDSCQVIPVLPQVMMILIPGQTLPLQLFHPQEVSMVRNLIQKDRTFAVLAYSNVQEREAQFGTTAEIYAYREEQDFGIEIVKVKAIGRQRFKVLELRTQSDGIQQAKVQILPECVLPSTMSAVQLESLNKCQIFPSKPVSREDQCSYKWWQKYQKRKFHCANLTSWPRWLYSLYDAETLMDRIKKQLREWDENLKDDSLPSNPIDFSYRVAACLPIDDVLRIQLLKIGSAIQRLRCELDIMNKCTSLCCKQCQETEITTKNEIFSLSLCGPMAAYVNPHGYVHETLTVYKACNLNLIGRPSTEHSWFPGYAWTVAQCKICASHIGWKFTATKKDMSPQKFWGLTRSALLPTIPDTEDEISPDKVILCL
Sequence of CRBN-DDB1 (Q16531 whole entry partner): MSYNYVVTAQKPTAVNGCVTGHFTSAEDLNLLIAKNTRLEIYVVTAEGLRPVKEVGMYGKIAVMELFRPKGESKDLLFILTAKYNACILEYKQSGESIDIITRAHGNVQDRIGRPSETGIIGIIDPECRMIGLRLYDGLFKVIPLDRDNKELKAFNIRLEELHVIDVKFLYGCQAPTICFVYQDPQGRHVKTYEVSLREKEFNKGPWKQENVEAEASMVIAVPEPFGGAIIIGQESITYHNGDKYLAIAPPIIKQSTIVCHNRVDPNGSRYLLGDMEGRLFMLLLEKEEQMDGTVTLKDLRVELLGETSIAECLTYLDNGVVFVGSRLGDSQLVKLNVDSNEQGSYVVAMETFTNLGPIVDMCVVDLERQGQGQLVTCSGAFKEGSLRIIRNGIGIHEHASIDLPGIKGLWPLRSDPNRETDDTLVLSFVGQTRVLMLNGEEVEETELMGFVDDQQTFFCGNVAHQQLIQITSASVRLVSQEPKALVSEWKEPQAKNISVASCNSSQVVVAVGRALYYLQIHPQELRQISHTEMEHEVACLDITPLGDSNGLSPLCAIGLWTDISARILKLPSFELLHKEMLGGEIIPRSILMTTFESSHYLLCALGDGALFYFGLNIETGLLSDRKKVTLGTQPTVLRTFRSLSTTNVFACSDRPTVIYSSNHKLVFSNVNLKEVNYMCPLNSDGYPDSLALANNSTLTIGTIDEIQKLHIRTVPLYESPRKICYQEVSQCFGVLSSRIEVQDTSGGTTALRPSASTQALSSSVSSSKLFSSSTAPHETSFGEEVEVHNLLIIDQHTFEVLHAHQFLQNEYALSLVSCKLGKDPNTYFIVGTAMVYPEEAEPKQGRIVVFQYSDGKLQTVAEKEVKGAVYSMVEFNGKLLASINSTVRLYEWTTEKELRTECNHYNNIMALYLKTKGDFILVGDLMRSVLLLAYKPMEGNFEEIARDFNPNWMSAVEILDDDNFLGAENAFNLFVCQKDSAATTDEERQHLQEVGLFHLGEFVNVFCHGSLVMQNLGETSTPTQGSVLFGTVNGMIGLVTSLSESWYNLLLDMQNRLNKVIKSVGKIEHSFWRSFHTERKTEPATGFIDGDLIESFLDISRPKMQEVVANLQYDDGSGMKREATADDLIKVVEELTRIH
Sequence of His-tagged CRBN-DDB1 complex (Q96SW2 whole entry): as the sequence (Q96SW2 whole entry) above
Sequence of His-tagged CRBN-DDB1 complex (Q16531 whole entry partner): as the sequence (Q16531 whole entry partner) above

SMILES	IC50 [1] [µM]	IC50 (CRBN-DDB1) [µM]
O=C1Cc2cccc(C(=O)N3CCc4ccccc43)c2C(=O)N1 [Compound I-1, 8-(2,3-Dihydroindole-1-carbonyl)-2,4-dihydroisoquinoline-1,3-dione]	> 100	10 to 30
NC(=O)c1ccccc1-c1cccc2c1C(=O)NC(=O)C2 [Compound I-2, 2-(1,3-Dioxo-2,4-dihydroisoquinolin-8-yl)benzamide]	> 100	30 to 100
O=C1Cc2cccc(C(=O)N3CCOc4ccccc43)c2C(=O)N1 [Compound I-3, 8-(2,3-Dihydro-1,4-benzoxazine-4-carbonyl)-2,4-dihydroisoquinoline-1,3-dione]	> 100	30 to 100
Cc1ccccc1-c1ccc2c(c1)C(=O)NC(=O)C2 [Compound I-4, 7-(2-Methylphenyl)-2,4-dihydroisoquinoline-1,3-dione]	30 to 100	> 100
O=C1Cc2ccccc2C(=O)N1 [Compound I-5, 2,4-Dihydroisoquinoline-1,3-dione]	> 100	30 to 100
Cc1ncoc1-c1ccc2c(c1)C(=O)NC(=O)C2 [Compound I-6, 7-(4-Methyl-1,3-oxazol-5-yl)-2,4-dihydroisoquinoline-1,3-dione]	> 100	> 100
O=C1Cc2ccc(Br)cc2C(=O)N1 [Compound I-7, 7-Bromo-2,4-dihydroisoquinoline-1,3-dione]	30 to 100	> 100
O=C1Cc2cccc(Br)c2C(=O)N1 [Compound I-8, 8-Bromo-2,4-dihydroisoquinoline-1,3-dione]	10 to 30	> 100
Cc1ccccc1-c1cccc2c1C(=O)NC(=O)C2 [Compound I-24]		10 to 30
Cc1ncoc1-c1cccc2c1C(=O)NC(=O)C2 [Compound I-25]		> 100
O=C1CC2(C(=O)N1)C(=O)Nc1ccccc12 (centres unmarked) [Compound I-176]		> 100
O=C1Cc2cccc(Oc3ccccc3Br)c2C(=O)N1 [Compound I-205]		< 10
O=C1Cc2cccc(Oc3ccc(Br)cc3)c2C(=O)N1 [Compound I-206, 8-(4-Bromophenoxy)-2,4-dihydroisoquinoline-1,3-dione]		< 10
O=C1Cc2cccc(Oc3cccc(Br)c3)c2C(=O)N1 [Compound I-207]		< 10

Results, then the compound that gave them:

IC50 [1] [µM]	IC50 (CRBN-DDB1) [µM]	SMILES
	10 to 30	O=C1Cc2cccc(C(=O)N(Cc3ccccc3)Cc3ccccc3)c2C(=O)N1 [Compound I-208]
	10 to 30	O=C1Cc2cccc(Oc3ccccc3[N+](=O)[O-])c2C(=O)N1 [Compound I-261]
	> 100	O=C1Cc2cccc(Oc3ccccc3)c2CC(=O)N1 [Compound I-262]
	30 to 100	Nc1ccccc1Oc1cccc2c1C(=O)NC(=O)C2 [Compound I-263]
	10 to 30	O=C1Cc2cccc(Oc3cccnc3)c2C(=O)N1 [Compound I-271]
> 100		O=C1CC2(CCN(C(=O)c3cccc(C(F)(F)F)n3)CC2)CC(=O)N1 [Compound I-367]
> 100		O=C1CC2(CCN(C(=O)c3ccc4ccccc4c3)CC2)CC(=O)N1 [Compound I-368]
> 100		O=C1CC2(CCN(C(=O)c3ccc(O)cc3)CC2)CC(=O)N1 [Compound I-369]
> 100		O=C1CC2(CCN(C(=O)c3n[nH]c4ccccc34)CC2)CC(=O)N1 [Compound I-371]
> 100		O=C1CC2(CCNCC2)CC(=O)N1 [Compound I-372]
> 100		O=C1CC2(CCN(C(=O)c3ccnc(Cl)c3)CC2)CC(=O)N1 [Compound I-373]
> 100		O=C1CC2(CCN(Cc3ccccc3)CC2)CC(=O)N1 [Compound I-374]
30 to 100		O=C1NC(=O)[C@@H]2CN(C(=O)c3coc(COc4ccc5c(c4)OCO5)n3)C[C@H]12 [Compound I-375]
30 to 100		Cc1nn(C)c2nc(N3CCC4(CC3)CC(=O)NC(=O)C4)sc12 [Compound I-376]
30 to 100		O=C1CC2(CCc3cc(Br)ccc32)C(=O)N1 (centres unmarked) [Compound I-377]
30 to 100		O=C1NC(=O)c2cc(NC(=O)N3CC=C(c4ccc(O)cc4)CC3)ccc21 [Compound I-378]
